# Reference: the supplement of paper PMC10307832
# Assays:
# Experiment in all cases: relative viability (nuclei count vs DMSO), 5 days (fraction); higher = more cells survive
# DM3189 + Olaparib = compound: C1CN(CCN1)C2=CC=C(C=C2)C3=CN4C(=C(C=N4)C5=CC=NC6=CC=CC=C56)N=C3 [DM3189] + O=C(c1cc(Cc2n[nH]c(=O)c3ccccc23)ccc1F)N1CCN(C(=O)C2CC2)CC1 [Olaparib] (partner 8 µM)
# Method in brief: (§1)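 Five library-drug doses in √10 steps were combined with a fixed anchor-drug dose, or a single drug was given alone, by pin tool to lung cancer cell lines in 1536-well plates the day after seeding. Nuclei were stained and counted after 5 days. Relative viability is the nuclei count in treated wells over that in vehicle wells, taken as the median of duplicate plates.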
# DM3189 + Lapatinib = compound: C1CN(CCN1)C2=CC=C(C=C2)C3=CN4C(=C(C=N4)C5=CC=NC6=CC=CC=C56)N=C3 [DM3189] + CS(=O)(=O)CCNCc1ccc(-c2ccc3ncnc(Nc4ccc(OCc5cccc(F)c5)c(Cl)c4)c3c2)o1 [Lapatinib] (partner 2 µM)
# Method in brief: as §1
# DM3189 + Phenformin = compound: C1CN(CCN1)C2=CC=C(C=C2)C3=CN4C(=C(C=N4)C5=CC=NC6=CC=CC=C56)N=C3 [DM3189] + N=C(N)NC(=N)NCCc1ccccc1 [Phenformin] (partner 250 µM)
# Method in brief: as §1
# DM3189 + Pemetrexed = compound: C1CN(CCN1)C2=CC=C(C=C2)C3=CN4C(=C(C=N4)C5=CC=NC6=CC=CC=C56)N=C3 [DM3189] + Nc1nc2[nH]cc(CCc3ccc(C(=O)N[C@@H](CCC(=O)O)C(=O)O)cc3)c2c(=O)[nH]1 [Pemetrexed] (partner 0.2 µM)
# Method in brief: as §1
# DM3189 + Palbociclib = compound: C1CN(CCN1)C2=CC=C(C=C2)C3=CN4C(=C(C=N4)C5=CC=NC6=CC=CC=C56)N=C3 [DM3189] + CC(=O)c1c(C)c2cnc(Nc3ccc(N4CCNCC4)cn3)nc2n(C2CCCC2)c1=O [Palbociclib] (partner 0.5 µM)
# Method in brief: as §1
Cell Line,relative viability (DM3189 + Olaparib; first compound 0.08 µM),relative viability (DM3189 + Olaparib; first compound 0.253 µM),relative viability (DM3189 + Olaparib; first compound 0.8 µM),relative viability (DM3189 + Olaparib; first compound 2.53 µM),relative viability (DM3189 + Lapatinib; first compound 0.08 µM),relative viability (DM3189 + Lapatinib; first compound 0.253 µM),relative viability (DM3189 + Lapatinib; first compound 2.53 µM),relative viability (DM3189 + Phenformin; first compound 0.08 µM),relative viability (DM3189 + Phenformin; first compound 0.253 µM),relative viability (DM3189 + Phenformin; first compound 0.8 µM),relative viability (DM3189 + Phenformin; first compound 2.53 µM),relative viability (DM3189 + Pemetrexed; first compound 0.08 µM),relative viability (DM3189 + Pemetrexed; first compound 0.253 µM),relative viability (DM3189 + Pemetrexed; first compound 0.8 µM),relative viability (DM3189 + Pemetrexed; first compound 2.53 µM),relative viability (DM3189 + Palbociclib; first compound 0.08 µM),relative viability (DM3189 + Palbociclib; first compound 0.253 µM),relative viability (DM3189 + Palbociclib; first compound 0.8 µM),relative viability (DM3189 + Palbociclib; first compound 2.53 µM),relative viability (DM3189 + Lapatinib; first compound 0.8 µM)
HCC-78,0.763,0.659,0.586,0.944,0.981,0.656,0.825,0.713,0.754,0.724,0.605,0.918,0.918,0.848,0.927,0.479,0.395,0.423,0.586,
HCC-366,0.312,0.325,0.311,0.416,0.839,0.93,0.931,0.531,0.611,,0.605,0.139,0.166,0.116,0.149,0.408,0.286,0.244,0.341,0.681
HCC-827,0.665,0.573,0.511,0.698,0.179,0.161,0.192,0.443,0.444,0.441,0.431,0.279,0.244,0.249,0.275,0.539,0.437,0.452,0.428,0.16
HOP-62,0.347,0.547,0.167,0.404,1.23,0.968,0.977,0.691,0.722,0.6,0.682,0.32,0.296,0.295,0.346,0.53,0.453,0.46,0.402,1.01
IA-LM,0.999,1.02,0.821,1.2,1.09,,1.02,,,,,,,,,,,,,0.855
LC-2-ad,0.713,0.66,0.652,0.747,0.946,0.787,0.836,0.689,0.531,0.533,0.584,0.259,0.253,0.257,0.276,0.561,0.507,0.487,0.49,0.823
LCLC-97TM1,0.415,0.314,0.281,0.397,0.744,0.488,0.755,0.459,0.364,0.433,0.399,0.182,0.17,0.136,0.167,0.196,0.154,0.177,0.178,0.416
LCLC-103H,0.78,0.713,0.736,0.75,,,,0.357,0.315,0.286,0.304,0.514,0.407,0.431,0.469,0.536,0.434,0.45,0.455,
LK-2,0.626,0.613,0.388,0.489,0.613,0.625,0.43,0.29,0.26,0.228,0.237,0.283,0.198,0.197,0.183,0.51,0.393,0.387,0.243,0.458
